Consider 2 compounds from US20260091141A1, “GENE EDITING METHODS, SYSTEMS, AND COMPOSITIONS FOR TREATING SPINAL MUSCULAR ATROPHY” (The Broad Institute, Inc., priority 2023, published 2026).

Experiment [1] concerns SMN protein. The experiment can be described thus: SMN protein levels in Δ7SMA mESCs by Western blot, normalized to histone H3. It counts as cell-based, mouse. The text has this:
Precise deletions are defined as those that remove ≥4 nt of ISS-N1 including ≥4 nt of the 3′-hnRNP A1/A2 domain. […] Precise deletions are defined as those that enable the addition of five or more C-terminal amino acids to SMNΔ7 (SMNΔ7mod) to restore protein stability. […] The observed fraction of precise deletions, splice acceptor (SA) deletions, and other indels are shown. […] FIG. 1I provides stacked bar charts showing SMN2 splice variants following editing with C-nuc and C-CBE, as measured by high-throughput sequencing of mRNA transcripts amplified with exon 6 and polyA-primers. Splicing activity of exon 7 spliced and unspliced sub-fractions is shown. Asterisks indicate *≤0.05. **≤0.01, and ***≤0.005.
(§1) Risdiplam doses of 1.0, 0.5, 0.25, or 0.1 μM were used (shown from left to right in the graph). […] The asterisk indicates p<0.05 by Welch's two-tailed t-test. […] UG=unrelated guide; NT=no treatment.
(§2) UG-unrelated guide; NT=no treatment.
(A western blot detects proteins with antibodies after separation by electrophoresis.)

Another experiment concerns SMN2 transcript. Put plainly: SMN2 / exon 7 mRNA transcript levels in Δ7SMA mESCs. Format: cell-based, mouse. As for the experimental part: as §1, §2
The next experiment relates to SMN2 exon 7 splicing. The experiment can be described thus: SMN2 exon 7 splicing by RT-PCR (exons 6 to 8) and automated electrophoresis in Δ7SMA mESCs. Format: cell-based, mouse. As to the method:
To assess whether nuclease-mediated editing of ISS-N1 improved exon 7 splicing, reverse-transcription PCR (RT-PCR) of SMN2 was performed from exons 6 to 8, and SMNΔ7 and full-length SMN products were quantified by automated electrophoresis (FIG. 1C).
For Δ7SMA mESCs nusinersen experiments, cells were transfected with 20 nM of fully 2′-O-methoxyethyl (MOE)-modified ASO (5′-[…]-3′) (SEQ ID NO: 469) on a phosphorothioate backbone (TriLink), using Lipofectamine 3000 (ThermoFisher Scientific). After 24 hours media was replaced every other day with fresh mESC+2i media. For splicing rescue by risdiplam, mESC media was supplemented with 0.1-1 μM of risdiplam (RG7916, Selleck Chemicals LLC) in DMSO, as indicated. Cells were harvested at the indicated timepoints.
mRNA was isolated from […] mESCs with the RNeasy mini kit (Qiagen), and reverse transcription was performed using SuperScript IV (ThermoFisher) according to the manufacturer's protocols. For targeted SMN2 qPCR and splice product quantitation by automated electrophoresis, reverse transcription was performed with random hexamers. Splicing inclusion of SMN2 exon 7 was quantified by automated electrophoresis using Tape Station (Agilent). For unbiased SMN2 splice product analysis by high-throughput sequencing, reverse transcription was performed using a custom oligo-dT primer with a Read 2 Illumina sequencing stub. […]

For experiment [2], the system named is SMN protein. Put plainly: Western blot of SMN protein in Δ7SMA mESCs. It counts as cell-based, mouse. Conditions: normalized to histone H3. As to the method: Cells harvested for western blot were washed with ice-cold PBS and incubated at 4° C. for 30 min while rocking in RIPA lysis buffer (ThermoFisher) supplemented with 1 mM PMSF (ThermoFisher) and complete EDTA-free protease inhibitor cocktail (Roche). Lysates were clarified by centrifugation at 12,000 rpm at 4° C. for 20 min. Lysates were normalized using BCA (Pierce BCA Protein Assay Kit) and combined with 4× Laemelli buffer (BioRad) and DTT (ThermoFisher) at a final concentration of 1 mM. 10 μg of reduced protein were loaded per gel lane, and transfer was performed with an iBlot 2 dry blotting system (ThermoFisher) using the following program: 20V for 1 min, then 23 V for 4 min, then 25 V for 2 min, for a total transfer time of 7 minutes. Blocking was performed at room temperature for 60 minutes with block buffer: 1% BSA in TBST (150 mM NaCl, 0.5% Tween-20, 50 mM Tris-Cl, pH 7.5).
Membranes were then incubated in primary antibody diluted in block buffer for 2 hours at room temperature. After a washing, secondary antibodies diluted in TBST were added and incubated for 1 hour at room temperature. Membranes were washed again and imaged using a LI-COR Odyssey. Wash steps were 3×5-minute washes in TBST. […]

A further experiment has as its system SMN2 mRNA. Put plainly: RT-qPCR of SMN2 mRNA abundance in Δ7SMA mESCs. Format: cell-based, mouse. As to the method: To investigate how exon 8 SA disruption affects SMN2 transcripts, reverse transcription quantitative PCR (RT-qPCR) was performed to measure the abundance of SMN2 mRNA in treated and control Δ7SMA mESCs. The terminal sequence of SMN2, including intron 7 and the 3′ untranslated region (UTR) of exon 8, encode negative regulators of gene expression and mRNA transcript stability^21,71,72. Alternative splicing at the terminus of SMN2 therefore may result in increased SMN protein levels. […]
To investigate whether risdiplam and nusinersen treatment of Δ7SMA mESCs affect SMN2 transcript abundance, RT-qPCR was performed, and SMN2 mRNA levels were quantified in treated and genome edited cells (FIG. 7G). […] In contrast, a 1.8-fold reduction of SMN2 mRNA was detected 48 hours after nusinersen treatment relative to untreated Δ7SMA mESCs (Welch's two-tailed t-test p<0.005) that explains the relative reduction in SMN protein levels compared to the base editing approach (FIG. 2G).
mRNA was isolated from […] mESCs with the RNeasy mini kit (Qiagen), and reverse transcription was performed using SuperScript IV (ThermoFisher) according to the manufacturer's protocols. For targeted SMN2 qPCR and splice product quantitation by automated electrophoresis, reverse transcription was performed with random hexamers. […]

The test system of another experiment is Δ7SMA mice. Put plainly: Electrophysiological measurements (CMAP, MUNE) in Δ7SMA mice. Format: in vivo, mouse. Conditions: PND12, 2.5×10^13 vg/kg Zolgensma, 0.1 mg/kg risdiplam IP daily. As for the experimental part:
Compound muscle action potential (CMAP) amplitude and motor unit number estimation (MUNE) from the gastrocnemius muscle of treated animals was performed to assess loss of motor neuron functional integrity, a key feature of SMA and preclinical SMA models^131. […] MUNE were reduced by 50% in untreated Δ7SMA animals compared to heterozygous mice. […] In contrast, little or no improvement in MUNE was observed following Zolgensma or 0.1 mg/kg risdiplam administration (50% and 75% relative to heterozygotes respectively, Kruskal-Wallis test p>0.6). […] Thus, neonatal ICV injection of AAV9-ABE measurably rescues SMA pathophysiology of spinal motor neurons.
Compound muscle action potential (CMAP) and motor unit number estimate (MUNE) measurements were performed as previously described^178. Briefly, at PND12 the right sciatic nerve was stimulated with a pair of insulated 28-gauge monopolar needles (Teca, Oxford Instruments Medical, NY) placed in proximity to the sciatic nerve in the proximal hind limb.
Recording electrodes consisted of a pair of fine ring wire electrodes (Alpine Biomed, Skovlunde, Denmark). […]
For MUNE, an incremental stimulus technique similar to a previously described procedure was used^178. […] The peak-to-peak amplitude of each individual incremental response was calculated by subtracting the amplitude of the prior response. […]

Experiment [3] deals with SMN protein. Conditions: patient tissues; cited from earlier work.
Experiment [4] deals with SMN protein. The conditions noted are these: SMA patients; cited from earlier work.
In a further experiment the test system is DNA. Conditions: SpCas9 mutation relative to SEQ ID NO: 209; UniProtKB Q99ZW2 entry; cited from earlier work.

Regarding `Cc1cn2nc(-c3cc(=O)n4cc(N5CCNC6(CC6)C5)ccc4n3)cc(C)c2n1` [risdiplam], in the experiment with SMN protein [1], the “SMN protein levels, increase compared to Δ7SMA mESCs” value stood at 9.5 fold. Further, in the experiment on SMN2 transcript, the “effect on SMN2 transcript levels” value is recorded as “interfered with the endogenous regulation of SMN transcript levels”. The “exon 7 splicing” value with SMN2 exon 7 splicing is 89±4.3%. Also, the “increase in SMN protein levels relative to untreated” value with SMN protein [2] turned out to be 9.1 fold. Besides, the “increase in SMN2 transcripts relative to untreated cells” value in the experiment with SMN2 mRNA came to 1.6 fold. Also, in the experiment with Δ7SMA mice, the “MUNE relative to heterozygotes” value was 75%. For the same compound, the “increase of SMN protein levels” value in the experiment on SMN protein [3] was roughly 2 fold. Moreover, in the experiment with SMN protein [4], the “increase of SMN protein levels in patient tissues” value was roughly 2 fold.

Consider “H840A: SpCas9 mutation relative to SEQ ID NO: 209”, for which the “Function/Characteristic (as reported)” value with DNA is “Nickase mutant which cleaves the non-”.
